Assay results published in patent US10172947B2, “Antiparasitic and/or antifungal composition comprising hydrophobised chitosan” (CENTRE NATIONAL DE LA RECHERCHE SCIENTIFIQUE (CNRS), priority 2013, dated 2019).
Converted amounts (≈) assume the structure as drawn.

Legend:
Format in all cases: cell-based
[1] = tested on: Leishmania braziliensis promastigotes; assay: In vitro evaluation on promastigotes (MTT); conditions: 72 h
Method: (§1) The compositions 5a (PIBCA-[chitosan20/chitosan20-TBA] 100/0 m/m %) and 4 (MC3+α-cyclodextrin 1/10% m/v), described in point 3 hereinabove, have been tested in vitro on three strains of Leishmania: Leishmania major (MHOM/SU/73/5-ASKH/LEM134), Leishmania tropica (LRC-L39/LEM2563), Leishmania braziliensis (MHOM/BR/75/M2903b). The IC50 were measured then compared to the reference product amphotericin B in order to determine the anti-leishmanial activity of the nanoparticles.
(§2) The promastigote culture was carried out at 26° C. in M199 medium (Sigma, Saint-Quentin Fallavier, France) supplemented with 4.2 mM NaHCO3, 10% of foetal calf serum inactivated by heat (Invitrogen, Saint-Aubin, France), 40 mM Hepes pH 7.5, 100 μM adenosine and 20 μM haemin (complete M199 medium).
(§3) The test of the compositions on prosmatigotes was conducted as previously described (Saint-Pierre-Chazalet et al., J. Antimicrob. Chemother., 2009, 64, 993-1001). Series of dilutions were carried out in 100 μl of complete M199 medium in a 96-well plate. Promastigotes in exponential growth were then added to each well at a rate of 10^6/ml in a final volume of 200 μl. After 72 h of incubation at 26° C., the viability of the promastigotes was measured by using 250 μg/ml of MTT, or 3-(4,5-dimethylthiazol-2-yl)-2,5-diphenyl tetrazolium bromide (Sigma, Saint-Quentin Fallavier, France), which is reduced in formazan, an insoluble product, by the active mitochondria of the living cells. After 4 h of incubation at 26° C., the formazan is then solubilised by adding 100 μl of isopropanol containing 40 mM of HCl in each well, then incubating for 15 minutes under stirring. The viability of the cells was then quantified by measuring the absorbance at 570 nm using a plate reader (Labsystems Multiskan MS). The activity of the compositions is expressed in IC50. Amphotericin B is used as a reference product.

[2] = tested on: Leishmania tropica promastigotes; assay: In vitro evaluation on promastigotes (MTT); conditions: 72 h
Method: as §1, §2, §3

[3] = tested on: Leishmania major promastigotes; assay: In vitro evaluation on promastigotes (MTT); conditions: 72 h
Method: as §1, §2, §3

[4] = tested on: Leishmania braziliensis intramacrophagic amastigotes; assay: In vitro evaluation on intramacrophagic amastigotes (RAW 264.7, Sybr Green); conditions: 48 h of treatment
Method: as §1
(§4) The macrophages RAW 264.7 were maintained at 37° C. with 5% CO2 in DMEM medium (Dulbecco's modified Eagle's medium, Gibco, Saint-Aubin, France) supplemented with 10% of foetal calf serum, inactivated by heat (Invitrogen, Saint-Aubin, France), also called complete DMEM medium.
(§5) The evaluation of the compositions 5a and 4 on intramacrophagic amastigotes was conducted as previously described (Audisio et al., Eur. J. Med. Chem., 2012, 52, 44-50). The macrophages RAW 264.7 were added in the wells of 96-well plates at a rate of 2×10^4 cells per well and incubated for 24 h at 37° C. with 5% CO2. The axenic amastigotes were then induced as described hereinabove, centrifuged at 2000 g for 10 minutes, then resuspended in a complete DMEM medium, and added to each well at a rate of 3.2×10^5 parasites per well, in order to reach a parasite/macrophage ratio of 16:1. After 24 h of infection at 37° C. with 5% CO2, the extracellular parasites were removed and 100 μl of complete DMEM medium containing the seried dilutions of the compositions were added to each well. After 48 h of treatment, the culture medium is removed, then replaced with 100 μl of DirectPCR Lysis reagent (Euromedex, Souffelweyersheim, France), and three freezing-thawing cycles at ambient temperature are then carried out, then 50 μg/ml of proteinase K are added, and a final incubation at 55° C. for 4 hours is carried out in order to allow for the complete lysis of the cells. […] The fluorescence of the DNA was measured using the Mastercycler® realplex (Eppendorf, Montesson, France). […]

[5] = tested on: Leishmania major intramacrophagic amastigotes; assay: as above; conditions: 48 h of treatment
Method: as §1, §4, §5

[6] = tested on: Leishmania tropica intramacrophagic amastigotes; assay: as above; conditions: 48 h of treatment
Method: as §1, §4, §5

[7] = tested on: Leishmania major axenic amastigotes; assay: In vitro evaluation on axenic amastigotes (resazurin); conditions: 72 h
Method: as §1
(§6) The culture of the axenic amastigotes was carried out at 37° C. in a complete M199 medium supplemented with 200 μM CaCl2 and 200 μM MgCl2.
(§7) Axenic amastigotes were induced by incubating promastigotes in complete M199 medium supplemented with 200 μM of CaCl2 and 200 μM MgCl2 at 37° C. with 5% CO2 for 48 h. Serial two-fold dilutions of the compositions were then carried out in 100 μl of the same medium in 96-well plates. The axenic amastigotes were then added in each well at 10^6/ml in 200 μl of final. volume After 72 h of incubation at 37° C. with 5% CO2, 20 μl of resazurin at 450 μM were added in each well, then incubated in the dark for 24 h at 37° C. with 5% CO2. In living cells, resazurin is reduced in resofurin. This conversion is monitored by measuring the absorbance at specific wavelengths of the resofurin (570 nm) and of the resazurin (600 nm) by using a microplate reader (Labsystem Multisken MS). The activity of the compositions is expressed in IC50. Amphotericin B is used as a reference product.

[8] = tested on: Leishmania tropica axenic amastigotes; assay: as above; conditions: 72 h
Method: as §1, §6, §7

[9] = tested on: Leishmania braziliensis axenic amastigotes; assay: as above; conditions: 72 h
Method: as §1, §6, §7

[10] = tested on: Trichomonas vaginalis; assay: Anti Trichomonas vaginalis activity, parasite count after 24 h; conditions: reference product, MTZ-sensitive strain ATCC PRA-98
Method: Trichomonas vaginalis is axenically cultivated at 35° C. in a trypticase-yeast extract-maltose medium (TYM) (Diamond L. S. et al., J. Parasitol., 1957, 43(4), 488-490) enriched with 10% of decomplemented horse serum (Gibco, France); the strain is subcultured every other day (Camuzat-Dedenis B. et al., Eur. J. Med. Chem., 2001, 36(10), 837-842).
The tubes of culture containing the fresh TYM medium enriched with 10% of horse serum alone (control 1, noted as C1) or those with the compositions tested, are inoculated with the parasite at a rate of 2×10^5 protozoa in 3 mL. The compositions tested are the compositions of PIBCA-[chitosan20/chitosan20-TBA] that have different proportions of chitosan and of thiolated chitosan, namely 100/0, 75/25, 50/50 and 25/75 m/m %. The concentrations in nanoparticles studied are 12.5, 25, 50 and 100 μg/mL.
The results are compared between (i) the nanoparticles of PIBCA/F68; (ii) the solutions comprised of mixtures of PIBCA-[chitosan20/chitosan20-TBA] having different proportions of chitosan and thiolated chitosan, namely 100/0, 75/25, 50/50 and 25/75 m/m %, (iii) the polymerisation medium (control 2, noted as C2). […]
The tubes are incubated for 24 h at 35° C. and the number of parasites per milliliter in each tube is determined microscopically with a haemocytometer (Kova® Glasstic® Slide 10, Hycor Biomedical, United States). […]

[11] = tested on: Candida albicans; assay: Activity against Candida albicans, IC50 by microdilution with MTT viability test; conditions: 24 h at 35° C., molecule alone
Method: The inoculum is prepared by sampling 5 colonies obtained after 24 h of culture on Sabouraud agar medium, each one of at least 1 mm in diameter, and by putting them in suspension in 5 mL of sterile NaCl (0.85%). The turbidity of each suspension is evaluated by measuring the optical density at a wavelength of 530 nm then adjusted with a sterile isotonic solution so as to obtain an absorbance equivalent to that obtained with the turbidimetric standard (Mac Farland 0.5).
This protocol leads to the obtaining of a suspension of which the concentration is between 1×10^6 and 5×10^6 CFU/mL. […]
Measuring the growth of yeasts is carried out by a standard colorimetric technique that makes use of tetrazolium salt MTT (5 mg/mL) (3-(4,5-dimethylthiazol-2-yl)-2,5-diphenyl tetrazolium bromide) with menadione (vitamin K). […] The quantity of precipitate formed is proportional to the quantity of living cells and to the metabolic activity of each cell. It is sufficient therefore after the incubation of the cells with MTT for 1 h at 37° C., to add an agent solubilising the crystals of formazan, to centrifuge the 96-well plates, and to read the optical density of the supernatant. A simple dosage of the optical density at 570 nm by spectroscopy makes it possible to know the relative quantity of living cells. […]

SMILES: C[C@@H]1[C@H](O)[C@@H](C)/C=C/C=C/C=C/C=C/C=C/C=C/C=C/[C@H](O[C@@H]2O[C@H](C)[C@@H](O)[C@H](N)[C@@H]2O)C[C@@H]2O[C@](O)(C[C@@H](O)C[C@@H](O)[C@H](O)CC[C@@H](O)C[C@@H](O)CC(=O)O[C@H]1C)C[C@H](O)[C@H]2C(=O)O [Amphotericin B-DOC, Amphotericin B]
- IC50 (ng/μl) ± SEM [1]: 0.022 ± 0.005 ng/µL (≈ 0.0238 µM)
- IC50 (ng/μl) ± SEM [2]: 0.023 ± 0.002 ng/µL (≈ 0.0249 µM)
- IC50 (ng/μl) ± SEM [3]: 0.015 ± 0.004 ng/µL (≈ 0.0162 µM)
- IC50 (ng/μl) ± SEM [4]: 0.29 ± 0.09 ng/µL (≈ 0.314 µM)
- IC50 (ng/μl) ± SEM [5]: 0.49 ± 0.13 ng/µL (≈ 0.53 µM)
- IC50 (ng/μl) ± SEM [6]: 0.51 ± 0.07 ng/µL (≈ 0.552 µM)
- IC50 (ng/μl) ± SEM [7]: 0.038 ± 0.002 ng/µL (≈ 0.0411 µM)
- IC50 (ng/μl) ± SEM [8]: 0.049 ± 0.01 ng/µL (≈ 0.053 µM)
- IC50 (ng/μl) ± SEM [9]: 0.055 ± 0.014 ng/µL (≈ 0.0595 µM)

SMILES: Cc1ncc([N+](=O)[O-])n1CCO [MTZ, metronidazole]
- lethal concentration against Trichomonas vaginalis [10]: 7 µg/mL

SMILES: N=C(NCCCCCCNC(=N)NC(=N)Nc1ccc(Cl)cc1)NC(=N)Nc1ccc(Cl)cc1.O=C(O)[C@H](O)[C@@H](O)[C@H](O)[C@H](O)CO.O=C(O)[C@H](O)[C@@H](O)[C@H](O)[C@H](O)CO [chlorhexidine digluconate]
- IC50 against Candida albicans [11]: 0.00068%
